Measured values as given in PMC5940854, “Nitrothiophene carboxamides, a novel narrow spectrum antibacterial series: Mechanism of action and Efficacy” (Scientific Reports, 2018).
Converted amounts (≈) assume the structure as drawn.

Legend:
Type in all cases: cell-based
E. coli ∆acrB JW0451-2 = assay: MIC, E. coli ∆acrB; conditions: Escherichia coli, read-out: MIC acrB
Experimental: (§1) The inoculum used for all the experiments is derived from a single seed lot that is maintained as glycerol stocks at −80 °C and are sub cultured on LB plate for isolated colonies. Single colony of each strain is grown in M9 medium. All test compound stocks and dilutions are prepared in DMSO. Serial two-fold dilutions of compounds are prepared separately, with the concentrations ranging from 2 mg/mL to 0.015 mg/mL. To 150 µl (3–7 × 10^5 CFU/ml) of bacterial culture in 96 well microtitre plates, 3 μL compound from each of the dilutions is added to respective wells to obtain final concentrations ranging from 40 µg/mL to 0.3 µg/mL of the test compounds. Media control, culture control and appropriate reference drug controls are included. […] Growth is monitored by checking absorbance at 600 nm (A600). […] The samples from MIC and above concentrations are plated for MBC (Minimum Bactericidal Concentration). The samples are diluted 1:10 and plated on LB agar plates. […] The killing kinetics is determined by enumerating survivors at various time points following compound exposure. E. coli cells (~10^7 CFU/ml; A600 of 0.1) are treated with various concentrations (40 µg/mL to 0.3 µg/mL) of compounds in a 96-well microtitre plate. At various time intervals (0 to 8 h), 30 μl volumes of treated cultures are serially diluted and plated on LB agar plates. […] Data is expressed as the log10 CFU for each drug treatment.

[1] = test system: E. coli acrZ knockout strain; assay: MIC, efflux pump knockout acrZ; conditions: Escherichia coli, read-out: MIC acrZ
Experimental: as §1, with “plate.” for “plate. At various time intervals (0 to 8 h), 30 μl volumes of treated cultures are serially diluted and plated on LB agar plates.”

E. coli ∆tolC JW5503-1 = assay: MIC, E. coli ∆tolC; conditions: Escherichia coli, read-out: MIC tolC
Experimental: as §1

[2] = test system: E. coli macB knockout strain; assay: MIC, efflux pump knockout macB; conditions: Escherichia coli, read-out: MIC macB
Experimental: as §1, with “plate.” for “plate. At various time intervals (0 to 8 h), 30 μl volumes of treated cultures are serially diluted and plated on LB agar plates.”

[3] = test system: E. coli acrF knockout strain; assay: MIC, efflux pump knockout acrF; conditions: Escherichia coli, read-out: MIC acrF
Experimental: as §1, with “plate.” for “plate. At various time intervals (0 to 8 h), 30 μl volumes of treated cultures are serially diluted and plated on LB agar plates.”

[4] = test system: E. coli emrE knockout strain; assay: MIC, efflux pump knockout emrE; conditions: Escherichia coli, read-out: MIC emrE
Experimental: as §1, with “plate.” for “plate. At various time intervals (0 to 8 h), 30 μl volumes of treated cultures are serially diluted and plated on LB agar plates.”

[5] = test system: E. coli emrY knockout strain; assay: MIC, efflux pump knockout emrY; conditions: Escherichia coli, read-out: MIC emrY
Experimental: as §1, with “plate.” for “plate. At various time intervals (0 to 8 h), 30 μl volumes of treated cultures are serially diluted and plated on LB agar plates.”

[6] = test system: E. coli mdfA knockout strain; assay: MIC, efflux pump knockout mdfA; conditions: Escherichia coli, read-out: MIC mdfA
Experimental: as §1, with “plate.” for “plate. At various time intervals (0 to 8 h), 30 μl volumes of treated cultures are serially diluted and plated on LB agar plates.”

[7] = test system: E. coli acrD knockout strain; assay: MIC, efflux pump knockout acrD; conditions: Escherichia coli, read-out: MIC acrD
Experimental: as §1, with “plate.” for “plate. At various time intervals (0 to 8 h), 30 μl volumes of treated cultures are serially diluted and plated on LB agar plates.”

[8] = test system: E. coli mdtK knockout strain; assay: MIC, efflux pump knockout mdtK; conditions: Escherichia coli, read-out: MIC mdtK
Experimental: as §1, with “plate.” for “plate. At various time intervals (0 to 8 h), 30 μl volumes of treated cultures are serially diluted and plated on LB agar plates.”

[9] = test system: E. coli hsrA knockout strain; assay: MIC, efflux pump knockout hsrA; conditions: Escherichia coli, read-out: MIC hsrA
Experimental: as §1, with “plate.” for “plate. At various time intervals (0 to 8 h), 30 μl volumes of treated cultures are serially diluted and plated on LB agar plates.”

[10] = test system: E. coli emrB knockout strain; assay: MIC, efflux pump knockout emrB; conditions: Escherichia coli, read-out: MIC emrB
Experimental: as §1, with “plate.” for “plate. At various time intervals (0 to 8 h), 30 μl volumes of treated cultures are serially diluted and plated on LB agar plates.”

[11] = test system: E. coli mdtL knockout strain; assay: MIC, efflux pump knockout mdtL; conditions: Escherichia coli, read-out: MIC mdtL
Experimental: as §1, with “plate.” for “plate. At various time intervals (0 to 8 h), 30 μl volumes of treated cultures are serially diluted and plated on LB agar plates.”

[12] = test system: E. coli mdtB knockout strain; assay: MIC, efflux pump knockout mdtB; conditions: Escherichia coli, read-out: MIC mdtB
Experimental: as §1, with “plate.” for “plate. At various time intervals (0 to 8 h), 30 μl volumes of treated cultures are serially diluted and plated on LB agar plates.”

[13] = test system: wild-type E. coli CGSC#7636 (BW25113); assay: MIC, wild-type E. coli; conditions: Escherichia coli, BW25113, E. coli WT BW25113; read-out: MIC WT
Experimental: as §1

[14] = test system: E. coli bcr knockout strain; assay: MIC, efflux pump knockout bcr; conditions: Escherichia coli, read-out: MIC bcr
Experimental: as §1, with “plate.” for “plate. At various time intervals (0 to 8 h), 30 μl volumes of treated cultures are serially diluted and plated on LB agar plates.”

[15] = test system: E. coli yciM knockout strain; assay: MIC, efflux pump knockout yciM; conditions: Escherichia coli, read-out: MIC yciM
Experimental: as §1, with “plate.” for “plate. At various time intervals (0 to 8 h), 30 μl volumes of treated cultures are serially diluted and plated on LB agar plates.”

[16] = test system: E. coli mdtG knockout strain; assay: MIC, efflux pump knockout mdtG; conditions: Escherichia coli, read-out: MIC mdtG
Experimental: as §1, with “plate.” for “plate. At various time intervals (0 to 8 h), 30 μl volumes of treated cultures are serially diluted and plated on LB agar plates.”

CN(C)[C@@H]1C(O)=C(C(N)=O)C(=O)[C@@]2(O)C(O)=C3C(=O)c4c(O)cccc4[C@@](C)(O)[C@H]3C[C@@H]12 [tetracycline, reference compound] showed an MIC (E. coli ∆acrB JW0451-2) of 0.3 µg/mL (≈ 0.675 µM), an MIC [1] of 1.2 µg/mL (≈ 2.7 µM) and an MIC (E. coli ∆tolC JW5503-1) of 0.3 µg/mL (≈ 0.675 µM). For the same molecule, the MIC [2] was 1.2 µg/mL (≈ 2.7 µM), the MIC [3] was 1.2 µg/mL (≈ 2.7 µM) and the MIC [4] was 1.2 µg/mL (≈ 2.7 µM). For the same molecule, the MIC [5] was 1.2 µg/mL (≈ 2.7 µM), the MIC [6] was 1.2 µg/mL (≈ 2.7 µM) and the MIC [7] was 1.2 µg/mL (≈ 2.7 µM). It also gave an MIC [8] of 1.2 µg/mL (≈ 2.7 µM), an MIC [9] of 1.2 µg/mL (≈ 2.7 µM) and an MIC [10] of 1.2 µg/mL (≈ 2.7 µM). It also gave an MIC [11] of 1.2 µg/mL (≈ 2.7 µM), an MIC [12] of 1.2 µg/mL (≈ 2.7 µM) and an MIC [13] of 1.2 µg/mL (≈ 2.7 µM). For the same molecule, the MIC [14] was 1.2 µg/mL (≈ 2.7 µM), the MIC [15] was 1.2 µg/mL (≈ 2.7 µM) and the MIC [16] was 1.2 µg/mL (≈ 2.7 µM).
